Organism: Cavia porcellus
Test: Activity at muscarinic receptor in guinea pig terminal ileum assessed as compound required for 50% effect relative to acetylcholine
Type: tissue-based

| Structure (SMILES) | Ratio |
| --- | --- |
| C[N+](C)(C)CC1CC=CC1 | 11 |
| C[C@H]1C[C@H](C[N+](C)(C)C)C[C@H]1O | 454 |
| C[N+](C)(C)C[C@H]1CCC(=O)C1 | 50 |
| C[N+](C)(C)C[C@@H]1CC=CCC1 | 269 |
| C[N+](C)(C)C[C@H]1CC[C@H](O)C1 | 221 |
| C[C@H]1C[C@H](C[N+](C)(C)C)C[C@@H]1O | 100 |
| C[N+](C)(C)C[C@H]1CCC[C@@H](O)C1 (relative stereo) | > 10000 |
| CC1=CC[C@@H](C[N+](C)(C)C)C1 | 30 |
| C[C@H]1CC[C@@H](C[N+](C)(C)C)C1 | 100 |
| C[N+](C)(C)C[C@H]1CCCC(=O)C1 | 507 |
| C[C@@H]1C[C@H](C[N+](C)(C)C)C[C@H]1O | 9.8 |
| CC1C[C@H](C[N+](C)(C)C)CC1=O (some centres not stated) | 0.5 |
| C[N+](C)(C)CC1CCCCC1 | 203 |
| C[N+](C)(C)CC1CCCC1 | 16 |
| C[N+](C)(C)C[C@H]1CC[C@@H](O)C1 | 3590 |
| C[C@@H]1C[C@H](C[N+](C)(C)C)C[C@@H]1O | 500 |
| C[N+](C)(C)C[C@H]1CCC[C@H](O)C1 (relative stereo) | 2900 |

Source: ChEMBL document CHEMBL3272044, “Cholinergic compounds. 9. Cyclohexane analogues of deoxamuscarine and derivatives” (J Med Chem, 1977)
